Assay results taken from ChEMBL document CHEMBL4229561, “Design, synthesis, and biological evaluation of selective and potent Carbazole-based butyrylcholinesterase inhibitors” (Bioorg Med Chem, 2018).
Activity calls are given as the source filed them. The calls are words filed in the database; no cut-off is given here.

Assays:
Rattus norvegicus [1] = assay: Reversal of scopolamine-induced memory impairment in albino Wistar rat assessed as increase in time spent in target quadrant in probe day at 2.5 mg/kg, ip by Morris water maze test; assay type: functional, organism-based
Rattus norvegicus [2] = assay: Reversal of scopolamine-induced memory impairment in albino Wistar rat assessed as decrease in mean training period traveled distance to find platform at 2.5 mg/kg, ip by Morris water maze test; assay type: functional, organism-based
Rattus norvegicus [3] = assay: Reversal of scopolamine-induced memory impairment in albino Wistar rat assessed as effect on swimming speed at 2.5 mg/kg, ip by Morris water maze test; assay type: functional, organism-based
Cholinesterase [4] = target: T1, Cholinesterase (Equus caballus, UniProt P81908); assay: Inhibition of equine serum BuChE using butyrylthiocholine iodide as substrate preincubated for 10 mins followed by substrate addition measured for 5 mins by Ellman's method
Acetylcholinesterase = Acetylcholinesterase (Electrophorus electricus, UniProt O42275); assay: Inhibition of electric eel AChE using acetylthiocholine iodide as substrate preincubated for 10 mins followed by substrate addition measured for 5 mins by Ellman's method
[5] = Selectivity index, ratio of IC50 for electric eel AChE to IC50 for equine serum BuChE
[6] = target: Amyloid-beta precursor protein (Homo sapiens) (UniProt P05067); assay: Inhibition of HFIP-pretreated amyloid beta (1 to 42) (unknown origin) self-induced aggregation at 10 uM after 48 hrs by thioflavin-T fluorescence assay relative to control
[7] = target: Cholinesterase (Equus caballus) (UniProt P81908); assay: Potency index, ratio of galantamine IC50 to compound IC50 for inhibition of equine serum BuChE
PC-12 [8] = assay: Neuroprotection against H2O2-induced cell death in rat PC12 cells assessed as increase in cell viability at 1 uM preincubated for 3 hrs followed by H2O2 addition measured after 12 hrs by MTT assay; assay type: functional, cell-based
[9] = target: Cholinesterase (Equus caballus) (UniProt P81908); assay: Potency index, ratio of donepezile IC50 to compound IC50 for inhibition of equine serum BuChE
Rattus norvegicus [10] = assay: Reversal of scopolamine-induced memory impairment in albino Wistar rat assessed as decrease in mean training period scape latency at 10 mg/kg, ip by Morris water maze test; assay type: functional, organism-based
Rattus norvegicus [11] = assay: Reversal of scopolamine-induced memory impairment in albino Wistar rat assessed as decrease in mean training period traveled distance to find platform at 10 mg/kg, ip by Morris water maze test; assay type: functional, organism-based
PC-12 [12] = assay: Cytotoxicity against rat PC12 cells assessed as reduction in cell viability at 100 uM by MTT assay; assay type: cell-based; settings: pc-12, 100 µM
Cholinesterase [13] = target: T1, Cholinesterase; assay: Mixed-type inhibition of equine serum BuChE using varying levels of butyrylthiocholine iodide as substrate preincubated for 10 mins followed by substrate addition measured for 5 mins by Lineweaver-Burk plot analysis
Rattus norvegicus [14] = assay: Reversal of scopolamine-induced memory impairment in albino Wistar rat assessed as increase in time spent in target quadrant in probe day at 10 mg/kg, ip by Morris water maze test; assay type: functional, organism-based
Rattus norvegicus [15] = assay: Reversal of scopolamine-induced memory impairment in albino Wistar rat assessed as effect on swimming speed at 5 to 20 mg/kg, ip by Morris water maze test; assay type: functional, organism-based
PC-12 [16] = assay: Neuroprotection against H2O2-induced cell death in rat PC12 cells assessed as cell viability at 10 uM preincubated for 3 hrs followed by H2O2 addition measured after 12 hrs by MTT assay relative to control; assay type: functional; settings: read-out: Activity

Sequence of Acetylcholinesterase (O42275 whole entry): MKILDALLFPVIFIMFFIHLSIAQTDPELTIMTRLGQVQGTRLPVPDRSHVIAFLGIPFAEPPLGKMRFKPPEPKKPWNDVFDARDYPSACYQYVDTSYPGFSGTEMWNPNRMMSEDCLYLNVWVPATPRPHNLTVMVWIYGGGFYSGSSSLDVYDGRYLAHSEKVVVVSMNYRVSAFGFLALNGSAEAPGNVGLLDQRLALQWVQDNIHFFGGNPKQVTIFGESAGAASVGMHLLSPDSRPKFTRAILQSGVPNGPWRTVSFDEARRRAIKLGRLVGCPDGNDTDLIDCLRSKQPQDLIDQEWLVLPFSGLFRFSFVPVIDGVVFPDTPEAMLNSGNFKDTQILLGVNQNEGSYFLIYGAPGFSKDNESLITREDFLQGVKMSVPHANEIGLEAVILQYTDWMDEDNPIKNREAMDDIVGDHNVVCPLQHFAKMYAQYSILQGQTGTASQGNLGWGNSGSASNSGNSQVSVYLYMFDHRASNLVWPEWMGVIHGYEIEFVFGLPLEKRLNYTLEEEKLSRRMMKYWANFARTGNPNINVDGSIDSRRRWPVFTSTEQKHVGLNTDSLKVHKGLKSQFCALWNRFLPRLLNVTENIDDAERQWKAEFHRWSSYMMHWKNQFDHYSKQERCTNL
T1 sequence (P81908 whole entry): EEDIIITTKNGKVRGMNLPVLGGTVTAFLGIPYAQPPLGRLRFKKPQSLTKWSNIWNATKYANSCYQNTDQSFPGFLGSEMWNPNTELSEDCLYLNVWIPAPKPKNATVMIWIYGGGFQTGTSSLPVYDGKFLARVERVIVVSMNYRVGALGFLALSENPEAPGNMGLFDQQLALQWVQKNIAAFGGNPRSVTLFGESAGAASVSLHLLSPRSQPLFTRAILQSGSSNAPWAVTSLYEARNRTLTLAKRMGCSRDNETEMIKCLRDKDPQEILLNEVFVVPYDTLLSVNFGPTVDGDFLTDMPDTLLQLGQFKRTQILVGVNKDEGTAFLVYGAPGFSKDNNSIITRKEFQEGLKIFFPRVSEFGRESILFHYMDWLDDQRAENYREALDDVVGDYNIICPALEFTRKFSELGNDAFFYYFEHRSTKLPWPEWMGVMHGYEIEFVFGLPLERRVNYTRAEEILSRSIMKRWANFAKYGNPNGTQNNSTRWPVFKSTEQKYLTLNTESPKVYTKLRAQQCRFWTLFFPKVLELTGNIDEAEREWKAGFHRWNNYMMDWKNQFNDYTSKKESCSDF
Sequence of Cholinesterase (Equus caballus) (P81908 whole entry): as above
Sequence of Amyloid-beta precursor protein (Homo sapiens) (P05067 whole entry): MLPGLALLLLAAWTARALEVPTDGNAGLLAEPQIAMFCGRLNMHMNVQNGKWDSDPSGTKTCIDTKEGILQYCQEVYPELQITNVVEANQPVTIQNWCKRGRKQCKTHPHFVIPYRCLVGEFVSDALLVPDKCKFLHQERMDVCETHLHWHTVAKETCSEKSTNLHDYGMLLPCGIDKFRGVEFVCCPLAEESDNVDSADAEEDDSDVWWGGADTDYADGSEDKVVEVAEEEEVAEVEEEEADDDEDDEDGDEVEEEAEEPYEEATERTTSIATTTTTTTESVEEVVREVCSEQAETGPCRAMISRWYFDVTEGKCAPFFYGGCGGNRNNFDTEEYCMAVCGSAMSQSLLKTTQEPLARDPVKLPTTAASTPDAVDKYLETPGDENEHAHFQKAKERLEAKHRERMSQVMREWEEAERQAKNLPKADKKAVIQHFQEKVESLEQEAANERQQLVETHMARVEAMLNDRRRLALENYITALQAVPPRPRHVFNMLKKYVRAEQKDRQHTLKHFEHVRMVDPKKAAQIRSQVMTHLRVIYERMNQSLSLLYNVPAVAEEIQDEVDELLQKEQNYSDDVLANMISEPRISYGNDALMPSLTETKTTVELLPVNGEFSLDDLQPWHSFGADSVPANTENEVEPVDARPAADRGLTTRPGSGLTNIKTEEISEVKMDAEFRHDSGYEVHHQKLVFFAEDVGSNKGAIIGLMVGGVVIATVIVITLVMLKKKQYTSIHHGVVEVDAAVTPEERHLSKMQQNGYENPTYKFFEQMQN

SMILES: COc1cc2c(cc1OC)C(=O)C(CC1CCN(Cc3ccccc3)CC1)C2 (stereo not given)
- Activity (Rattus norvegicus [1]): Active
- Activity (Rattus norvegicus [2]): Active
- Activity (Rattus norvegicus [3]): inactive

SMILES: Cc1ccccc1C[n+]1ccc(Cn2c3ccccc3c3ccccc32)cc1
- IC50 (Cholinesterase [4]): 0.35 µM
- IC50 (Acetylcholinesterase): 11.9 µM
- Ratio IC50 [5]: 34

SMILES: Cc1cccc(C[n+]2ccc(Cn3c4ccccc4c4ccccc43)cc2)c1
- IC50 (Cholinesterase [4]): 0.73 µM
- IC50 (Acetylcholinesterase): 17.5 µM
- Ratio IC50 [5]: 24

SMILES: Fc1ccccc1C[n+]1cccc(Cn2c3ccccc3c3ccccc32)c1
- IC50 (Cholinesterase [4]): 0.37 µM
- IC50 (Acetylcholinesterase): > 100 µM
- Ratio IC50 [5]: > 270

SMILES: Clc1ccccc1C[n+]1cccc(Cn2c3ccccc3c3ccccc32)c1
- IC50 (Cholinesterase [4]): 0.38 µM
- IC50 (Acetylcholinesterase): > 100 µM
- Ratio IC50 [5]: > 263

SMILES: Clc1cccc(C[n+]2ccc(Cn3c4ccccc4c4ccccc43)cc2)c1
- IC50 (Cholinesterase [4]): 0.35 µM
- IC50 (Acetylcholinesterase): 9.3 µM
- Ratio IC50 [5]: 26.6

SMILES: Nc1c2c(nc3ccccc13)CCCC2
- inhibition [6]: 7.7%

SMILES: Clc1ccc(C[n+]2cccc(Cn3c4ccccc4c4ccccc43)c2)cc1.[Cl-]
- Ratio IC50 [7]: 129
- IC50 (Cholinesterase [4]): 0.073 µM
- Activity (PC-12 [8]): inactive
- Ratio IC50 [9]: 4.8
- Activity (Rattus norvegicus [10]): Active
- Activity (Rattus norvegicus [11]): Active
- Activity (PC-12 [12]): Toxic
- Ki (Cholinesterase [13]): 0.09 µM
- Activity (Rattus norvegicus [14]): Active
- IC50 (Acetylcholinesterase): 20 µM
- Activity (Rattus norvegicus [15]): inactive
- viability at 10 µM (PC-12 [16]): 66%
- Ratio IC50 [5]: 274
- inhibition [6]: 49.9%

SMILES: Clc1ccc(C[n+]2ccc(Cn3c4ccccc4c4ccccc43)cc2)cc1
- IC50 (Cholinesterase [4]): 1.6 µM
- IC50 (Acetylcholinesterase): 19 µM
- Ratio IC50 [5]: 11.9

SMILES: Clc1cccc(C[n+]2cccc(Cn3c4ccccc4c4ccccc43)c2)c1
- IC50 (Cholinesterase [4]): 0.16 µM
- IC50 (Acetylcholinesterase): 32.8 µM
- Ratio IC50 [5]: 205

SMILES: Fc1ccccc1C[n+]1ccc(Cn2c3ccccc3c3ccccc32)cc1
- IC50 (Cholinesterase [4]): 0.67 µM
- IC50 (Acetylcholinesterase): 12.7 µM
- Ratio IC50 [5]: 18.9

SMILES: Fc1cccc(C[n+]2ccc(Cn3c4ccccc4c4ccccc43)cc2)c1
- IC50 (Cholinesterase [4]): 1.1 µM
- IC50 (Acetylcholinesterase): 21.3 µM
- Ratio IC50 [5]: 19.3

SMILES: Cc1ccc(C[n+]2cccc(Cn3c4ccccc4c4ccccc43)c2)cc1
- IC50 (Cholinesterase [4]): 0.11 µM
- IC50 (Acetylcholinesterase): 23.1 µM
- Ratio IC50 [5]: 210

SMILES: c1ccc(C[n+]2cccc(Cn3c4ccccc4c4ccccc43)c2)cc1
- IC50 (Cholinesterase [4]): 0.27 µM
- IC50 (Acetylcholinesterase): 61.9 µM
- Ratio IC50 [5]: 229

SMILES: Fc1cccc(C[n+]2cccc(Cn3c4ccccc4c4ccccc43)c2)c1
- IC50 (Cholinesterase [4]): 0.75 µM
- IC50 (Acetylcholinesterase): > 100 µM
- Ratio IC50 [5]: > 133

SMILES: Cc1ccc(C[n+]2ccc(Cn3c4ccccc4c4ccccc43)cc2)cc1
- IC50 (Cholinesterase [4]): 0.81 µM
- IC50 (Acetylcholinesterase): 15.6 µM
- Ratio IC50 [5]: 19.3

SMILES: Cc1ccccc1C[n+]1cccc(Cn2c3ccccc3c3ccccc32)c1
- IC50 (Cholinesterase [4]): 0.22 µM
- IC50 (Acetylcholinesterase): 52.5 µM
- Ratio IC50 [5]: 239

SMILES: Cc1cccc(C[n+]2cccc(Cn3c4ccccc4c4ccccc43)c2)c1
- IC50 (Cholinesterase [4]): 0.28 µM
- IC50 (Acetylcholinesterase): 66 µM
- Ratio IC50 [5]: 236

SMILES: Fc1ccc(C[n+]2ccc(Cn3c4ccccc4c4ccccc43)cc2)cc1
- IC50 (Cholinesterase [4]): 0.89 µM
- IC50 (Acetylcholinesterase): 18.8 µM
- Ratio IC50 [5]: 21.1

SMILES: Clc1ccccc1C[n+]1ccc(Cn2c3ccccc3c3ccccc32)cc1
- IC50 (Cholinesterase [4]): 0.59 µM
- IC50 (Acetylcholinesterase): 6.8 µM
- Ratio IC50 [5]: 11.5

SMILES: c1ccc(C[n+]2ccc(Cn3c4ccccc4c4ccccc43)cc2)cc1
- IC50 (Cholinesterase [4]): 0.58 µM
- IC50 (Acetylcholinesterase): 12.8 µM
- Ratio IC50 [5]: 22.1

SMILES: Fc1ccc(C[n+]2cccc(Cn3c4ccccc4c4ccccc43)c2)cc1
- IC50 (Cholinesterase [4]): 0.13 µM
- IC50 (Acetylcholinesterase): 29.4 µM
- Ratio IC50 [5]: 225
